Assay results as given in patent publication US20250144230A1, “LINKERS FOR USE IN ANTIBODY DRUG CONJUGATES” (Orum Therapeutics, Inc., priority 2021, published 2025).

Assays:
[1] = system: MV-4-11 human acute myeloid leukemia cells; experiment: In vivo MV-4-11 subcutaneous myeloid leukemia tumor model; set-up: species or system Athymic Nude mice
Protocol: Subcutaneous tumor model—MV-4-11 human acute myeloid leukemia cells (1×10^7 cells in 0.1 mL) were subcutaneously inoculated into the right flank of female Athymic Nude mice. Mice were treated with each test article when the tumor size reached 100-150 mm^3. 10 mg/kg of CD33-D antibody-Compound (XL) conjugate (in 20 mM succinate, 8% sucrose, 0.01% Tween-20 pH 5.5) was delivered by intravenous administration (IV) once a week for 2 weeks. 0.4 mg/kg of Compound (XL) (in 5% NMP, 45% PEG300, 20 mM NaPi pH 6.5) and 10 mg/kg of ARV-825 (as described in Liu, et al. Chemistry & Biology 2015, volume 22, pages 755-763) in 1.5 mg/mL, 5% Kolliphor, HS15 WFI Buffer was treated by intraperitoneal administration (IP) once a day for 14 days. Tumor size and mouse body weight were measured twice per week. Subcutaneous tumor volume (mm^3) was calculated with the following formula: (a×b^2/2) where ‘b’ is the smallest diameter and ‘a’ is the largest diameter. The study endpoint is that individual mice were euthanized following respective tumor volume ≥1,000 mm^3 or day 60, whichever came first.

BRD4 = biological target: T1, BRD4 (Homo sapiens, UniProt O60885); experiment: In vitro BRD4 protein degradation assay (Western blot); assay type: cell-based; conditions: 10 nM, MV4-11 cells, overnight
T1 construct: endogenous in cells; host or cells: MV4-11
Protocol: The ability of the claimed conjugates to degrade BRD4 was measured using an in vitro degradation assay. MV4-11 cells were incubated with test article overnight. Protein was loaded to 4-12% NuPAGE Bis-Tris gel. Western blot with rabbit anti-BRD4 Ab (Cell Signaling #13440) was performed at 1:1,000 dilution and re-blotting with β-actin HRP (Cell Signaling #5125) was performed at 1:1,000. The degradation activity of the gemtuzumab conjugate Compound (XL) and the unconjuaged BRD4 degrader small molecule Compound 40-3 are shown in FIG. 14.

MV-4-11 cells = experiment: In vitro MV-4-11 antiproliferation assay (alamarBlue); assay type: cell-based, human; conditions: 4 days, test article alone
Protocol: MV-4-11 cells were exposed to varying concentrations of conjugates or antibodies for 4 days with/without 1 μM of the blocking antibody Gemtuzumab or Trastuzumab. Viability of the cells was determined by alamarBlue. The antiproliferative activity of the gemtuzumab conjugate of Compound (XL) and the unconjuaged BRD4 degrader small molecule Compound 40-3 are showin in FIG. 13. […] The antibodies alone were not active up to […].

CD79b [2] = biological target: T2, CD79b (Homo sapiens, UniProt P40259); experiment: Binding of conjugate and parent antibody to cancer cells (flow cytometry), CD79b / Ramos; conditions: 1 hour at 4° C.; conjugate at DARs 2.0, 3.2 and 4.6
T2 construct: endogenous in cells; host or cells: Ramos
T2 sequence (P40259 29-229): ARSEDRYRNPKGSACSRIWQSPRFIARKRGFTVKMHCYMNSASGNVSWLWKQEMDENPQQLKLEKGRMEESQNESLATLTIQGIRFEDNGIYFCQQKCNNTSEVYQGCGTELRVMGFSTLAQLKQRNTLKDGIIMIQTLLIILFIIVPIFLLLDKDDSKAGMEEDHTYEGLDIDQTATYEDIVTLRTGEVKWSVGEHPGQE
T2 sequence (P11912 33-226 partner): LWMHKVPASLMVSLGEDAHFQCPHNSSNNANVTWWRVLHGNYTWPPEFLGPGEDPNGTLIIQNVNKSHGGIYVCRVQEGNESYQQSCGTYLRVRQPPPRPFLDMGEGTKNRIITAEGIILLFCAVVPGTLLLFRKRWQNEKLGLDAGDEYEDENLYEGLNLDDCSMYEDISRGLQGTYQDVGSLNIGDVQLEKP

CD79b [3] = biological target: T3, CD79b (UniProt P40259 29-229, limits assumed); experiment: flow cytometry binding to Ramos cells (procedure of Example 10)
T3 construct: whole, on cells; Endogenous antigen on the cell line
T3 sequence (looked up): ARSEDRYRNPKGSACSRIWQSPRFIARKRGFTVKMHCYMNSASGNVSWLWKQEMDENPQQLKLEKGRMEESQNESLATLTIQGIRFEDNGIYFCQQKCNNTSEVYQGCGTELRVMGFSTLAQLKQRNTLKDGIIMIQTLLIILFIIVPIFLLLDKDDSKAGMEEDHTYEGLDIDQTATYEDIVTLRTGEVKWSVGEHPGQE

Cc1sc2c(c1C)C(c1ccc(Cl)cc1)=N[C@@H](CC(=O)Nc1ccc(OCCOCCOCCOCCNc3cccc4c3C(=O)N(C3CCC(=O)NC3=O)C4=O)cc1)c1nnc(C)n1-2 (stereo partly drawn) [ARV-825]
effect on MV-4-11 tumor growth ([1]; 10 mg/kg IP once a day for 14 days): inactive

Cn1cc(-c2cc(NC(=O)CCCCC(=O)NCCCCNc3cccc4c3C(=O)N(C3CCC(=O)NC3=O)C4=O)ccc2Oc2ccc(F)cc2F)c2cc[nH]c2c1=O (stereo not drawn) [Compound 40-3, N′-[4-(2,4-difluorophenoxy)-3-{6-methyl-7-oxo-1H-pyrrolo[2,3-c]pyridin-4-yl}phenyl]-N-(4-{[2-(2,6-dioxopiperidin-3-yl)-1,3-dioxoisoindol-4-yl]amino}butyl)hexanediamide, reference compound]
effect on MV-4-11 tumor growth ([1]; 0.4 mg/kg IP once a day for 14 days (equivalent to conjugated payload dose)): inactive | reduction in BRD4 protein band intensity (BRD4): > 90% | antiproliferative activity against MV-4-11 cells (in words) (MV-4-11 cells): highly active

Synagis N297A: non-binding control antibody
CD79b binding on Ramos cells by flow cytometry (in words) (CD79b [2]): relatively negligible signal intensity

B1: CD79b-A antibody (antibody, V domains shown)
VH: EVQLVESGGGLVQPGGSLRLSCAASGYTFSSYWIEWVRQAPGKGLEWIGEILPGGGDTNYNEIFKGRATFSADTSKNTAYLQMNSLRAEDTAVYYCTRRVPIRLDYWGQGTLVTVSS
VL: DIQLTQSPSSLSASVGDRVTITCKASQSVDYEGDSFLNWYQQKPGKAPKLLIYAASNLESGVPSRFSGSGSGTDFTLTISSLQPEDFATYYCQQSNEDPLTFGQGTKVEIK
notes: also called Polatuzumab
EC50 (CD79b [3]): 0.74 nM
